The record followed here is patent US20050208058A1, “Compositions and methods for modulating cell division” (priority 2003, published 2005).

d = 2'-deoxy (DNA)

What all share (assay type): cell-based, human
For data set [1], the system named is RPE cells. Briefly: BrDU incorporation after siRNA treatment and nocodazole synchronization. The conditions noted are these: relative to control cells (siRNA to lamin), after nocodazole release; FIG. 2A. How it is done:
(§1) To further study the effects of silencing centrosomal genes, the following cell cycle experiments were performed using RPE cells. In immunofluorescence experiments, cells were delivered by OLIGOFECTAMINE in a media solution containing between 1-100 nanomolar concentration of siRNAs. After 4 hours of incubation with lipofectamine, cells were washed, and cell cycle progression was assayed by (i) treating cells with 5-Bromo-2′-deoxyuridine (BrDU from Sigma, St Louis, Mo.) for 24 hours and staining for BrDU or (ii) staining cells with antibody to Ki-67 (BD Biosciences) according to manufacturer's instructions. BrDU treatment and staining were performed as follows: after 50-70 hours incubation with siRNA, BrDU was added to cells at a final concentration of 5 μg/ml. Cells were fixed in −20° C. methanol and then treated with 2N HCL at 22° C. for 30 minutes, incubated with 1:500 mouse anti-BrdU antibody (Becton Dickinson, Palo Alto, Calif.), and labeled with 1:1,000 goat FITC-mouse antibody (Molecular Probes, Inc.). Cells were also treated with 4′,6-diamidino-2-phenylindole (DAPI) (Molecular Probes) according to the manufacturer's instructions. Cells were prepared, imaged, and the resulting images were deconvolved as described in Example 1.
Upon release from nocodazole treatment, proliferating cells typically resume cell cycle progression. Chromosomal DNA in the cells was imaged using DAPI (faint ghost-like staining) and/or BrDU (brighter staining). Although DAPI can be used to visualize DNA at any stage of the cell cycle, BrDU is only incorporated into newly synthesized DNA only during S-phase. Thus, BrDU incorporation can be used as a marker of cells that progress through at least one S-phase of the cell cycle. Control cells in this experiment were treated with siRNA to lamin.

The subject of data set [2] is RPE cells. Briefly: Ki-67 staining of siRNA-treated cells. The conditions noted are these: vs silamin; FIG. 2B. Here is the method:
as §1
FIG. 2B confirms the results in FIG. 2A using a different immunofluorescence marker for cell cycle progression. […]

A further data set concerns GCP2. Description: Immunofluorescence of GCP2 at the centrosome after siRNA treatment. The conditions noted are these: vs siLamin; FIG. 1B. Here is the method:
To test the ability of siRNAs to silence centrosomal gene products, cells were treated with siRNAs for 24 hours. Cells were diploid, telomerase-immortalized human retinal pigment epithelial (RPE1) cells (hTERT-RPE1s from Clontech, Palo Alto, Calif.) (see Morales et al., Nat Genet, 21:115-118, 1999). siRNAs directed to δ-tubulin (SEQ ID NO:2), γ-tubulin (SEQ ID NO:4), GCP2 (SEQ ID NO:5), GCP3(SEQ ID NO:6), cNAP1 (SEQ ID NO:8), PCM1 (SEQ ID NO:9), ninein (SEQ ID NO:21), NEK2a (SEQ ID NO:10), centrin2 (SEQ ID NO:12), CDC14A (SEQ ID NO:13), gapcena (SEQ ID NO:15), nemo (SEQ ID NO:16), pericentrin (SEQ ID NO:23), lamin A/C (CUGGACUUCCAGAAGAACA, SEQ ID NO: 24) zyxin (UGUGGCUGUCAACGAACUC, SEQ ID NO:25), and p53 (GGACAAGGGUUGGGCUGGG, SEQ ID NO:26) were made as complementary single stranded 19-mer siRNAs with 3′ dTdT overhangs (Dharmacon Inc., Lafayette, Colo.), deprotected, annealed and delivered into cells using OLIGOFECTAMINE® from Invitrogen (Carlsbad, Calif.). Nucleotides were delivered in media containing up to 100 nanomolar concentrations of siRNAs. […]
FIG. 1B compares cells treated with siRNA to Lamin (siLamin, left panel) and GCP2 (siGCP2, right panel). Oval shaped fluorescence staining indicates nuclear DNA (large arrow). […]

Consider “UCUCGUACUCCAGAAGACU (siRNA; RNA, 3' dTdT, backbone not given here) [siGCP2, siRNA directed to GCP2]”, for which the “incorporation of BrDU into chromosomal material” value in the data set with RPE cells [1] is “clearly inhibited incorporation of BrDU”. Besides, the “cells expressing Ki67” value in the data set with RPE cells [2] was “Very few cells”. Besides, the “GCP2 level in the centrosome (immunofluorescence)” value with GCP2 was “reduced levels of GCP2 in the centrosome”.
